# Literature values, collected in patent US20090311317A1, “MODIFIED RELEASE TOLTERODINE FORMULATIONS” (Capricorn Pharma Inc., priority 2008, published 2009).
# Structures can show the parent of a compound that is named as a salt.
# Key:
# bladder = settings: versus oxybutynin
# [1] = test system: muscarinic receptors of the salivary gland; settings: versus oxybutynin
structure (smiles),measurement,setting,value
"Cc1ccc(O)c([C@@H](CCN(C(C)C)C(C)C)c2ccccc2)c1 [tolterodine, (+)-N,N-diisopropyl-3-(2-hydroxy-5-methylphenyl)-3-phenylpropylamine L-hydrogen tartrate]",potency in the bladder relative to oxybutynin,bladder,equipotent with oxybutynin
same,affinity for muscarinic receptors of the salivary gland relative to oxybutynin,[1],eight times lower
